Measured values reported in ChEMBL document CHEMBL1151209, “New quassinoids, javanicolides C and D and javanicosides B--F, from seeds of Brucea javanica” (J Nat Prod, 2004).
≈ marks a conversion by molar mass, not a printed value.

System: P388
Experiment: Cytotoxicity against mouse P388 cells after 48 hrs by MTT assay
Assay type: functional, cell-based
Conditions: P388, 48 h

SMILES	IC50 [mg/L]
COC(=O)[C@@]12OC[C@]34[C@H]([C@@H](O)[C@@H]1O)[C@@]1(C)C[C@@H](O)[C@@H](O)[C@@H](C)[C@@H]1C[C@H]3OC(=O)[C@H](OC(=O)C=C(C)C)[C@@H]24 [JAVANICOLIDE C]	> 100
COC(=O)[C@@]12OC[C@]34[C@H]([C@@H](O)[C@@H]1O)[C@@]1(C)[C@H](O)[C@@H](O)C=C(C)[C@@H]1C[C@H]3OC(=O)[C@H](OC(=O)/C=C(\C)C(C)(C)O)[C@@H]24 [JAVANICOLIDE D]	18 (≈ 31.8 µM)
COC(=O)[C@@]12OC[C@]34[C@H]([C@@H](O)[C@@H]1O)[C@@]1(C)C(=O)C(O[C@@H]5O[C@H](CO)[C@@H](O)[C@H](O)[C@H]5O)=C[C@@H](C)[C@@H]1C[C@H]3OC(=O)[C@H](OC(=O)CC(C)C)[C@@H]24 [JAVANICOSIDE B]	5.6 (≈ 8.18 µM)
COC(=O)[C@@]12OC[C@@]34[C@@H](CC5=C(C)C(=O)C(O[C@@H]6O[C@H](CO)[C@@H](O)[C@H](O)[C@H]6O)=C[C@]5(C)[C@H]3[C@@H](O)[C@@H]1O)OC(=O)[C@H](OC(=O)C=C(C)C)[C@@H]24 [JAVANICOSIDE C]	18 (≈ 26.4 µM)
CC/C(=C\C(=O)O[C@H]1C(=O)O[C@@H]2C[C@H]3[C@H](C)C(=O)C(O[C@@H]4O[C@H](CO)[C@@H](O)[C@H](O)[C@H]4O)=C[C@]3(C)[C@H]3[C@@H](O)[C@H](O)[C@@]4(C(=O)OC)OC[C@]32[C@@H]14)C(C)(C)O [JAVANICOSIDE D]	89 (≈ 120 µM)
COC(=O)[C@@]12OC[C@]34[C@H]([C@@H](O)[C@@H]1O)[C@@]1(C)C=C(O[C@@H]5O[C@H](CO)[C@@H](O)[C@H](O)[C@H]5O)C(=O)[C@@H](C)[C@@H]1C[C@H]3OC(=O)[C@H](OC(=O)CC(C)C(C)(C)OC(C)=O)[C@@H]24 (some centres not stated) [JAVANICOSIDE E]	16 (≈ 20.8 µM)
CC/C(C)=C/C(=O)O[C@H]1C(=O)O[C@@H]2C[C@H]3[C@H](C)C(=O)C(O[C@@H]4O[C@H](CO)[C@@H](O)[C@H](O)[C@H]4O)=C[C@]3(C)[C@H]3[C@@H](O)[C@H](O)[C@@]4(C(=O)OC)OC[C@]32[C@@H]14 [JAVANICOSIDE F]	50 (≈ 71.8 µM)
